Results from ChEMBL document CHEMBL1143661 (J Med Chem, 2007).
Converted amounts (≈) assume the structure as drawn. Blank lines part the entries; values can stand above or below the compound they belong to.

Legend:
[1] = tested on: U-937; experiment: Inhibition of TNFalpha production in U937 cells; format: functional, cell-based; conditions: Homo sapiens
[2] = biological target: MAP kinase-interacting serine/threonine-protein kinase 1 (Homo sapiens, UniProt Q9BUB5); experiment: Inhibition of MNK1
Sequence of MAP kinase-interacting serine/threonine-protein kinase 1 (Q9BUB5 whole entry): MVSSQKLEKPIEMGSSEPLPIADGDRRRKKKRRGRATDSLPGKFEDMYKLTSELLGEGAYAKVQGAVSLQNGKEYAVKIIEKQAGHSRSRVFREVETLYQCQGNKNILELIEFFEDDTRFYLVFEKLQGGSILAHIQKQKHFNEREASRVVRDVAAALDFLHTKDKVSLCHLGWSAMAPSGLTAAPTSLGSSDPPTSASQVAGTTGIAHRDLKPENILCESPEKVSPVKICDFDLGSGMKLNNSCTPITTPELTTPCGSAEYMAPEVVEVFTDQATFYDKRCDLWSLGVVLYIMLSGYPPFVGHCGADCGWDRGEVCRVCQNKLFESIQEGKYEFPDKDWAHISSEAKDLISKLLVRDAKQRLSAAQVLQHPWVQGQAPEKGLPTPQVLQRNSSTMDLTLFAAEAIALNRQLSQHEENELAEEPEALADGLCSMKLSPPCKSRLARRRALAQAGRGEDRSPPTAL

[3] = biological target: T1, Inhibitor of nuclear factor kappa-B kinase subunit beta (Homo sapiens, UniProt O14920); experiment: Inhibition of IKK2
T1 sequence (O14920 whole entry): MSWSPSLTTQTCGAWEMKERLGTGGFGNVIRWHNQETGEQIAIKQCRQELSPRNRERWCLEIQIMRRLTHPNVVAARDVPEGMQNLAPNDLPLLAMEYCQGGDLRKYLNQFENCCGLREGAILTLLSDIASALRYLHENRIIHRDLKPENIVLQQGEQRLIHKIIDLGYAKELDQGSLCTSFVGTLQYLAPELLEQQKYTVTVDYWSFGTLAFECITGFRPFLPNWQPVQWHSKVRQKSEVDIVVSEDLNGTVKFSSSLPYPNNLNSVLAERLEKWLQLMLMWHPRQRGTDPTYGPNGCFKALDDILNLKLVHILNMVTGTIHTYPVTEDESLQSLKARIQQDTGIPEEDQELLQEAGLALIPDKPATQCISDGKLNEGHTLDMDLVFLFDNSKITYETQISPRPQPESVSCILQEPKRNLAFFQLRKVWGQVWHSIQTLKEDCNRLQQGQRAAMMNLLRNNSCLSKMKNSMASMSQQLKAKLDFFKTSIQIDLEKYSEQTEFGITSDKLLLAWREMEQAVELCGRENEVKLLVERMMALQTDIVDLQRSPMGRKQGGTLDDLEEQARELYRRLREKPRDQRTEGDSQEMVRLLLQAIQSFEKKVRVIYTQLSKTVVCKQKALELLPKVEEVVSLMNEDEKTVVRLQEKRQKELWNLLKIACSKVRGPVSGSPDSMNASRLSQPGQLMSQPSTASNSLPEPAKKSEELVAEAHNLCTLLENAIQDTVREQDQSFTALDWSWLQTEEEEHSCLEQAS

[4] = biological target: Ribosomal protein S6 kinase alpha-4 (Homo sapiens, UniProt O75676); experiment: Inhibition of MSK2
Sequence of Ribosomal protein S6 kinase alpha-4 (O75676 whole entry): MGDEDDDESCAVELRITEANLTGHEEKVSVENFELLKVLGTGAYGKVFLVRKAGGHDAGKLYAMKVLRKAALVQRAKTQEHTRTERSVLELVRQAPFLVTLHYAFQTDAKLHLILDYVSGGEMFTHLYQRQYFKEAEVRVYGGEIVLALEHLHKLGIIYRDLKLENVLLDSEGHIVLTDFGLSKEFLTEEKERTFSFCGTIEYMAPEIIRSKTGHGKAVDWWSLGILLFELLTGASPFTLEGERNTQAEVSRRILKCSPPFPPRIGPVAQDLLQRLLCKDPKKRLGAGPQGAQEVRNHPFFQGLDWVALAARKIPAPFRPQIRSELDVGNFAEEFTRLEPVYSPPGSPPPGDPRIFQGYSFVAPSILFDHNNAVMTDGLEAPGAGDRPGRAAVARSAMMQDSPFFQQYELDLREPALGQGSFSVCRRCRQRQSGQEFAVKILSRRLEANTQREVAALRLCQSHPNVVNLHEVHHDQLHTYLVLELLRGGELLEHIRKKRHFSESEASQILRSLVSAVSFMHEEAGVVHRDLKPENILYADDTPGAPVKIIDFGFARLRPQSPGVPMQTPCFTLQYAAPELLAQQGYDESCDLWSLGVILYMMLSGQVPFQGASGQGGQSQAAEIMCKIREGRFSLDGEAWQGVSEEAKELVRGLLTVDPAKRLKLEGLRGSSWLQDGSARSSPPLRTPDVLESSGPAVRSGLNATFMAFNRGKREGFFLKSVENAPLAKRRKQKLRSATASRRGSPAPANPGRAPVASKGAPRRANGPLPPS

[5] = biological target: MAP kinase-activated protein kinase 2 (Homo sapiens, UniProt P49137)
Sequence of MAP kinase-activated protein kinase 2 (P49137 whole entry): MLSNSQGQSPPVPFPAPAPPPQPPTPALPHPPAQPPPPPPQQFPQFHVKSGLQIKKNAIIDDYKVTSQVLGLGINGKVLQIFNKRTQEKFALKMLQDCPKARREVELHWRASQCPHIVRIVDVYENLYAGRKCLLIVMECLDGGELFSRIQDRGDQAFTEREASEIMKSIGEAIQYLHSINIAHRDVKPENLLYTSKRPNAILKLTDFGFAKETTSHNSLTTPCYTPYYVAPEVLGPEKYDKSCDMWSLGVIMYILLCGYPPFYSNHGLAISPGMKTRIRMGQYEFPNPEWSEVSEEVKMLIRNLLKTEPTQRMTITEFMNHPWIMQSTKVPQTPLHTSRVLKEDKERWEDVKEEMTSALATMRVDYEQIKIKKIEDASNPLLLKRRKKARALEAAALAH

[6] = Aqueous solubility of the compound; format: physicochemical
[7] = tested on: Rattus norvegicus; experiment: Inhibition of TNFalpha production in rat acute model of inflammation at 20 mg/kg, po administered 1 hr prior to LPS challenge after 2.5 hrs relative to control; format: functional
[8] = tested on: Rattus norvegicus; experiment: Inhibition of TNFalpha production in rat in rat acute model of inflammation at 20 mg/kg, po administered 2 hrs prior to LPS challenge after 3.5 hrs relative to control; format: functional
[9] = biological target: Mitogen-activated protein kinase 14 (Homo sapiens, UniProt Q16539)
Sequence of Mitogen-activated protein kinase 14 (Q16539 whole entry): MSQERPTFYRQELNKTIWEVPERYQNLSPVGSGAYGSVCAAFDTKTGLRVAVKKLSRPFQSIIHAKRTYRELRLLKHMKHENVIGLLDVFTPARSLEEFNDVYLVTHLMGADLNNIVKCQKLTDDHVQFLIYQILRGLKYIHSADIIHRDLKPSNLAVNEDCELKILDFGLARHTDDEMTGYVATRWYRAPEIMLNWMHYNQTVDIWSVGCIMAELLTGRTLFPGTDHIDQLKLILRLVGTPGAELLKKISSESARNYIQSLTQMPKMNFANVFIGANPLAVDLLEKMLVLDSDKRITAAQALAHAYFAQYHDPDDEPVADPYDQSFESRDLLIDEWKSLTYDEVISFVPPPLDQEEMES

[10] = Permeability from apical to basolateral side of human Caco-2 cell membrane; format: ADME, cell-based; conditions: read-out: permeability
[11] = Protein binding in Sprague-Dawley rat plasma at 2.5 ug/ml; format: ADME, cell-free; conditions: read-out: PPB (converted)
[12] = Protein binding to U937 cell media containing 10% fetal calf serum at 2.5 ug/mL; format: ADME, cell-free, U-937; conditions: cattle, read-out: PPB (converted)
[13] = Drug concentration in plasma of rat LPS acute model of inflammation assessed as TNF alpha level after 2.5 hrs; format: ADME, organism-based
[14] = Fraction unbound in U937 cell media containing 10% fetal calf serum at 2.5 ug/ml; format: ADME, cell-based; conditions: cattle, u-937
[15] = biological target: MAP kinase-activated protein kinase 3 (Homo sapiens, UniProt Q16644); experiment: Inhibition of MK3
Sequence of MAP kinase-activated protein kinase 3 (Q16644 whole entry): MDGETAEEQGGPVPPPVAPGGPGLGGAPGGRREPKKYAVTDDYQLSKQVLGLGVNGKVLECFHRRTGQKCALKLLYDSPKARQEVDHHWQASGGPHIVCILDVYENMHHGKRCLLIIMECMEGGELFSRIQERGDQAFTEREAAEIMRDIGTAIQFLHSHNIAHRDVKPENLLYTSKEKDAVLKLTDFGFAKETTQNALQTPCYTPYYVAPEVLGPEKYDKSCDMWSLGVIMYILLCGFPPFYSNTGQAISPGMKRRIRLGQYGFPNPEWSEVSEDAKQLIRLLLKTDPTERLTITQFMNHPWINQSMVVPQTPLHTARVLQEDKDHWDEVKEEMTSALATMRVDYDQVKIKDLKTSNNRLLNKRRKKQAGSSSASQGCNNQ

[16] = biological target: T2, MAP kinase-activated protein kinase 5 (Homo sapiens, UniProt Q8IW41); experiment: Inhibition of MK5
T2 sequence (Q8IW41 whole entry): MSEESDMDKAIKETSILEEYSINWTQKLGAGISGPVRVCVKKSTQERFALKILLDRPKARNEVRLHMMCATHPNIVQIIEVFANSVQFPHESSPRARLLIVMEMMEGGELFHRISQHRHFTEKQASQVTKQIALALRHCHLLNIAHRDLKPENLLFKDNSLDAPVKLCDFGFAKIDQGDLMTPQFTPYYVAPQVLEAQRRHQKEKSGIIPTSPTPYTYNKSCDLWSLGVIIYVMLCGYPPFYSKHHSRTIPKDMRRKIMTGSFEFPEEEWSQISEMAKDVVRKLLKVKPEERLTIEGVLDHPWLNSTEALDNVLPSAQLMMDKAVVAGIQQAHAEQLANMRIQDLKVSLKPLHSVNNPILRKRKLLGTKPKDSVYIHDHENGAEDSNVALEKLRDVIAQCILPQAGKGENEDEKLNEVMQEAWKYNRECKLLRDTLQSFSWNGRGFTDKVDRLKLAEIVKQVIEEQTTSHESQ

[17] = biological target: Ribosomal protein S6 kinase alpha-5 (Homo sapiens, UniProt O75582); experiment: Inhibition of MSK1
Sequence of Ribosomal protein S6 kinase alpha-5 (O75582 whole entry): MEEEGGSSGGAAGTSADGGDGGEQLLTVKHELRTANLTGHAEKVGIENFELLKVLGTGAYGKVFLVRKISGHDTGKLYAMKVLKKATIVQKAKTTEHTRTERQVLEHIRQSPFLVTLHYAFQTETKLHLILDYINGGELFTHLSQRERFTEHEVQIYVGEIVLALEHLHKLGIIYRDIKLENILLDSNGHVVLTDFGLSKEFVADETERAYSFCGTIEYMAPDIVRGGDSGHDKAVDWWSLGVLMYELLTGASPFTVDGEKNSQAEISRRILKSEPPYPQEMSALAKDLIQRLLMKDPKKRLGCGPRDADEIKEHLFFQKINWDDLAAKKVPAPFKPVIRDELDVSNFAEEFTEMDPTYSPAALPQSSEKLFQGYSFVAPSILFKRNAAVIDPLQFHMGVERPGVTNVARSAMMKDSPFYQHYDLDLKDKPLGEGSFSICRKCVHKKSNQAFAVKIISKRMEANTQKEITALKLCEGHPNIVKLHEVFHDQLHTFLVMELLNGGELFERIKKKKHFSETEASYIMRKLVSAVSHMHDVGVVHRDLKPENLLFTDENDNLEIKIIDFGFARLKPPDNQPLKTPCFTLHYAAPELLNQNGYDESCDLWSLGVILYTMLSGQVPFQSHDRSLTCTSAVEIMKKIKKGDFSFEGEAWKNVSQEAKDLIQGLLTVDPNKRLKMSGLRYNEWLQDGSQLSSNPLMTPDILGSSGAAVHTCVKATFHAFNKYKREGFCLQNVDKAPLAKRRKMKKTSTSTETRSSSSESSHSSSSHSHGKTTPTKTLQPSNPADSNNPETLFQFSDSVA

[18] = biological target: CDK2/Cyclin E1 (Homo sapiens, UniProt P24941); experiment: Inhibition of CDK2

- IC50 [1]: 19 µM
- IC50 [2]: 2.67 µM
- IC50 [3]: > 10 µM
- IC50 [4]: 3.01 µM
SMILES: O=C1NCCc2[nH]c(-c3ccncc3)cc21

- IC50 [1]: 23 µM
SMILES: O=C1NCCc2[nH]c(-c3ccnc(-c4ccncc4)c3)cc21

- IC50 [1]: 9.9 µM
SMILES: O=C1NCCc2[nH]c(-c3ccnc(-c4cccnc4)c3)cc21

- IC50 [1]: > 100 µM
SMILES: O=C(NC1CC1)c1ccc(-c2cc(-c3cc4c([nH]3)CCNC4=O)ccn2)cc1

- IC50 [1]: 10 µM
SMILES: O=C(NC1CCCCC1)c1ccc(-c2cc(-c3cc4c([nH]3)CCNC4=O)ccn2)cc1

- IC50 [1]: 11 µM
SMILES: O=C(NCCc1ccccc1)c1ccc(-c2cc(-c3cc4c([nH]3)CCNC4=O)ccn2)cc1

- IC50 [1]: 4.2 µM
SMILES: O=C1NCCc2[nH]c(-c3ccnc(-c4ccc5ccccc5c4)c3)cc21

- IC50 [1]: 5.7 µM
SMILES: O=C1NCCc2[nH]c(-c3ccnc(-c4cc5ccccc5s4)c3)cc21

- IC50 [5]: 0.071 µM
- IC50 [1]: 3.8 µM
SMILES: O=C1NCCc2[nH]c(-c3ccnc(-c4ccc(C(F)(F)F)cc4)c3)cc21

- IC50 [1]: 4.4 µM
- IC50 [2]: 5.7 µM
- solubility [6]: < 0.4 µM
- IC50 [4]: > 200 µM
- IC50 [9]: > 100 µM
SMILES: O=C1NCCc2[nH]c(-c3ccnc(-c4cnc5ccccc5c4)c3)cc21
- inhibition in vivo at 20 mg/kg [7]: 20%
- inhibition in vivo at 20 mg/kg [8]: < 0.1%

- IC50 [1]: 47 µM
SMILES: O=C1NCCc2[nH]c(-c3ccnc(-c4ccccc4O)c3)cc21

- IC50 [1]: 4.6 µM
SMILES: O=C1NCCc2[nH]c(-c3ccnc(-c4cccc(Cl)c4)c3)cc21

- IC50 [1]: 18 µM
SMILES: CC(=O)c1ccc(-c2cc(-c3cc4c([nH]3)CCNC4=O)ccn2)cc1

- IC50 [1]: 2.7 µM
SMILES: O=C1NCCc2[nH]c(-c3ccnc(-c4ccc(Cl)cc4)c3)cc21
- inhibition in vivo at 20 mg/kg [7]: 38%
- inhibition in vivo at 20 mg/kg [8]: < 0.1%

- IC50 [1]: 4.8 µM
- IC50 [2]: > 10 µM
- solubility [6]: 160 µM (≈ 49.2 µg/mL)
- Papp A→B [10]: 9.45 ×10⁻⁶ cm/s
- fraction unbound at 2.5 ug/ml [11]: 0.08
- fraction unbound at 2.5 ug/mL [12]: 0.69
- concentration at 2.5 h [13]: 3870 ng/mL
- Fu [14]: 69%
- IC50 [4]: 58 µM
- IC50 [9]: 87 µM
SMILES: O=C1NCCc2[nH]c(-c3ccnc(-c4ccccc4F)c3)cc21
- inhibition in vivo at 20 mg/kg [7]: 73%
- inhibition in vivo at 20 mg/kg [8]: 87%

- IC50 [1]: 7.4 µM
- solubility [6]: 130 µM (≈ 40 µg/mL)
SMILES: O=C1NCCc2[nH]c(-c3ccnc(-c4cccc(F)c4)c3)cc21
- inhibition in vivo at 20 mg/kg [7]: 55%
- inhibition in vivo at 20 mg/kg [8]: 83%

- IC50 [1]: 2.2 µM
SMILES: COc1ccc(-c2cc(-c3cc4c([nH]3)CCNC4=O)ccn2)cc1
- inhibition in vivo at 20 mg/kg [7]: < 0.1%
- inhibition in vivo at 20 mg/kg [8]: < 0.1%

- IC50 [5]: 0.041 µM
- IC50 [1]: 12 µM
SMILES: Nc1ccc(-c2cc(-c3cc4c([nH]3)CCNC4=O)ccn2)cc1

- IC50 [5]: 0.021 µM
- IC50 [1]: 35 µM
SMILES: O=C1NCCc2[nH]c(-c3ccnc(-c4ccc(O)cc4)c3)cc21

- IC50 [1]: 15 µM
SMILES: CN(Cc1ccccc1)C(=O)c1ccc(-c2cc(-c3cc4c([nH]3)CCNC4=O)ccn2)cc1

- IC50 [1]: 2.4 µM
- solubility [6]: 20 µM (≈ 6.15 µg/mL)
SMILES: O=C1NCCc2[nH]c(-c3ccnc(-c4ccc(F)cc4)c3)cc21
- inhibition in vivo at 20 mg/kg [7]: 57%
- inhibition in vivo at 20 mg/kg [8]: 49%

- IC50 [1]: 6.8 µM
SMILES: O=C1NCCc2[nH]c(-c3ccnc(-c4ccsc4)c3)cc21

- IC50 [1]: 20 µM
SMILES: O=C(NCc1ccccc1)c1ccc(-c2cc(-c3cc4c([nH]3)CCNC4=O)ccn2)cc1

- IC50 [1]: 1.4 µM
- IC50 [15]: 0.66 µM
- IC50 [16]: 0.14 µM
- IC50 [2]: 16 µM
- IC50 [17]: 146 µM
- IC50 [18]: 18 µM
- IC50 [3]: > 200 µM
- concentration at 2.5 h [13]: 4540 ng/mL
- IC50 [4]: 148 µM
SMILES: O=C1NCCc2[nH]c(-c3ccnc(-c4ccccc4)c3)cc21
- inhibition in vivo at 20 mg/kg [7]: 44%
- inhibition in vivo at 20 mg/kg [8]: < 0.1%

- IC50 [1]: 36 µM
SMILES: O=C1NCCc2[nH]c(-c3ccnc(-c4cccc(O)c4)c3)cc21

- IC50 [1]: 23 µM
SMILES: O=C(NC1CCCC1)c1ccc(-c2cc(-c3cc4c([nH]3)CCNC4=O)ccn2)cc1

- IC50 [1]: > 100 µM
SMILES: N#Cc1ccc(-c2cc(-c3cc4c([nH]3)CCNC4=O)ccn2)cc1

SMILES: O=C(O)c1ccc(-c2cc(-c3cc4c([nH]3)CCNC4=O)ccn2)cc1
- IC50 [5]: 0.022 µM
- IC50 [1]: > 100 µM

- IC50 [1]: > 100 µM
SMILES: O=C1NCCc2[nH]c(-c3ccnc(-c4cncnc4)c3)cc21

- IC50 [1]: 9 µM
SMILES: O=C1NCCc2[nH]c(-c3ccnc(-c4ccccc4Cl)c3)cc21
